From patent US20070293398A1, “Method for Controlling Coniferous Plants” (BASF Aktiengesellschaft, priority 2004, published 2007)

What was measured:
[1] = test system: wildling pine of the variety Loblolly (Pinus taeda); experiment: Field experiment Site 4: wildling Loblolly pine control, damage rating 0 to 100%; assay type: in vivo; details: field Site 4, combined with phenyluracil I.1.4
Method: The evaluation for the damage caused by the chemical compositions was carried out using a scale from 0 to 100%, compared to the untreated control plants. Here, 0 means no damage and 100 means complete destruction of the plants.

[2] = test system: pine species (loblolly pine); experiment: Field experiment Site 2: percent brownout of pine species following May application; assay type: in vivo, Pinus taeda; details: Site 2, May application, 0.840 kg a.i./ha, 1 WAT
Method: For the following experiment the phenyluracil of formula I and optionally the herbicide B were applied as an aqueous spray liquor. Phenyluracil I.1.4 (phenyluracil of formula I) was used as emulsifiable concentrate (0.120 kg a.i./L). Imazapyr (herbicide B) was used as an emulsifiable concentrate (26.7% by weight; Chopper®/BASF Corporation). Glyphosate (herbicide B) was used as a soluble concentrate (53.8% by weight; Accord® Concentrate/Dow AgroScience) Methylated seed oil (MSO) was also added to the spray liquor in amounts of 25.0% volume/volume as a standard spray adjuvant. Water was used as the carrier. Spray carrier volume was 65 L/ha.
The spray liquor had the following general recipe (based on a spray volume of 65 L/ha):
Herbicide treatments were applied in the spring using a pole sprayer with a single KLC-9 flood tip spraying from a height of 335 cm. This application technique was used to simulate operational aerial applications as closely as practical. Treatment plots were 9×18 m.
Woody vegetation was assessed at treatment and in the fall of the year of treatment and one year after treatment (one and two growing seasons after treatment). The most common woody species on the site at treatment included loblolly pine (Pinus taeda), southern red oak (Quercus falcata), water oak (Quercus nigra) and Vaccinium spp. […]

| SMILES | effect of addition on control of wildling pine (in words) [1] | brownout of pine species [2] [%] |
| --- | --- | --- |
| COc1c(Cl)ccc(Cl)c1C(=O)O [dicamba] | improved the control | – |
| CC(C)C1(C)N=C(c2ncccc2C(=O)O)NC1=O (centres unmarked) [imazapyr] | – | 2 |
